Measurements as given in patent publication US9241928B2, “Antimicrobial compounds” (The General Hospital Corporation, priority 2009, dated 2016).

What was measured:
[1] = tested on: P. aeruginosa strain PA14 infection in Caenorhabditis elegans; experiment: Liquid assay for PA14 infection of C. elegans; format: in vivo
Experimental: A liquid assay for PA14 infection of C. elegans in a 96-well plate format was developed. In brief, temperature-sterile glp-4 and glp-4;sek-1 worms were synchronized according to standard protocols. L1 larvae were plated, incubated for 16 hours at 15° C., and then for an additional 48 hours at […], which brought them to a young adult stage. In parallel, PA14 bacteria were grown overnight prior to being plated on SK medium plates (see Tan et al., Proc. Natl. Acad. Sci., 96(2): 715-720). PA14-inoculated plates were incubated for 24 hours at 37° C. prior to an 18 hours incubation at 25° C. Subsequently, bacteria were removed from plates and resuspended in S Basal media (see Stiernagle, (2006) “Maintenance of C. elegans” WormBook, ed. The C. elegans. Research Community http://www.wormbook.org/). 96-well polystyrene plates were prepared with a medium containing either 20% SK and 80% S Basal or 50% SK and 50% S Basal, with a bacterial density of OD600=0.03. […] Dispensation of 25 young adult glp-4 or glp-4; sek-1 worms to each well using a COPAS BioSort robot brought the final total volume to […]. After worms were added, each plate was sealed with a gas permeable membrane and incubated for 48 hours at 25° C. […] Worms were stained for 18 hours at 20° C. and each well was photographed using bright-field and red fluorescence channels with a Molecular Devices Discovery-1 Microscope.

PA14 = experiment: Growth of PA14 in presence of compound (data not shown); format: cell-based, Pseudomonas aeruginosa; details: 3.125 μg/mL
F35E12.5::GFP = experiment: Immune GFP reporter induction, transgene acIs101; format: in vivo, Caenorhabditis elegans; details: compound-exposed versus DMSO-exposed animals, visual
Excerpt: (§1) Caenorhabditis elegans strains were maintained on Escherichia coli OP50 as described in Brenner, Genetics, 1974, 77:71-94. Wildtype N2 nematodes carrying integrated transgenes acIs219 (AU78), acIs101(AY101), agIs17(AU133), or agIs26 (AU185) (see (1) Shivers, et al., PLoS. Genet. 2010, 6: e1000892, (2) Bolz et al., J. Biol. Chem. 2010, 285:10832-40, (3) Estes et al., Proc. Natl. Acad. Sci., 2010, 107:2153-8, and (4) Irazoqui et al., Proc. Natl. Acad. Sci., 2008, 105:17469-74) were used to assay the immunomodulatory activity of candidate compounds. […] Fold change was calculated using the Pfaffl method (see Pfaffl et al., Nucleic Acids Res., 2001, 29:e45).
(§2) Without wishing to be bound by theory, it was hypothesized that a subset of these compounds cured nematode infection by directly activating the innate immune response of the animal. […] First, the inventors studied four C. elegans strains in which the promoter of the nematode immune response genes T24B8.5, F35E12.5, irg-1 and clec-60 were individually fused to GFP, generating transgenes acIs219 (AU78), acIs101(AY101), agIs17(AU133), or agIs26 (AU185), respectively, thereby allowing a visual readout of gene activity in each strain. […]

T24B8.5::GFP = experiment: Immune GFP reporter induction, transgene acIs219; format: in vivo, Caenorhabditis elegans; details: compound-exposed versus DMSO-exposed animals, visual
Excerpt: as §1, with “compounds. For qRT-PCR experiments, RNA was extracted from synchronized young adult nematodes exposed to a candidate compound or DMSO (as a control) using TRI Reagent and reverse transcribed using the Retroscript kit (Ambion). This cDNA was then subjected to qRT-PCR analysis using SYBR green detection on a CFX1000 machine (Bio-Rad, http://www.bio-rad.com). Primers for qRT-PCR were obtained from published sequences (see Irazoqui et al., Proc. Natl. Acad. Sci., 2008, 105:17469-74 and Troemel et al., PLoS Genet. 2006, 2:e183).” for “compounds.”
Without wishing to be bound by theory, it was hypothesized that a subset of these compounds cured nematode infection by directly activating the innate immune response of the animal. To test this hypothesis, a multi-faceted approach was used. First, the inventors studied four C. elegans strains in which the promoter of the nematode immune response genes T24B8.5, F35E12.5, irg-1 and clec-60 were individually fused to GFP, generating transgenes acIs219 (AU78), acIs101(AY101), agIs17(AU133), or agIs26 (AU185), respectively, thereby allowing a visual readout of gene activity in each strain. Using these reporter strains, the ability of 33 compounds previously shown to have anti-Enterococcal killing activity in the C. elegans infection assay (24 of which have been described above) were tested for their ability to modulate the nematode immune response.

immune response genes = experiment: qRT-PCR of immune response genes, PMK-1 dependence (overall); format: in vivo, Caenorhabditis elegans; details: 20 μg/mL, N2 or pmk-1 mutant animals
Excerpt: as §1, with “compounds. For qRT-PCR experiments, RNA was extracted from synchronized young adult nematodes exposed to a candidate compound or DMSO (as a control) using TRI Reagent and reverse transcribed using the Retroscript kit (Ambion). This cDNA was then subjected to qRT-PCR analysis using SYBR green detection on a CFX1000 machine (Bio-Rad, http://www.bio-rad.com). Primers for qRT-PCR were obtained from published sequences (see Irazoqui et al., Proc. Natl. Acad. Sci., 2008, 105:17469-74 and Troemel et al., PLoS Genet. 2006, 2:e183).” for “compounds.”
By using the assay described above, the inventors identified five compounds (i.e., Compounds 11, 18, 20, 25, and 26) that robustly and reproducibly activated the immune GFP reporters (see FIG. 5 and Table 3) or activated selected immune response genes as determined by quantitative RT-PCR analysis (see Table 4). For the latter experiments, RNA was isolated from wild-type C. elegans N2 or pmk-1 mutant animals exposed to the candidate immunomodulatory compounds at 20 μg/mL and from animals exposed to DMSO. The inventors tested several immune response genes in compound-exposed animals that are known to be regulated by PMK-1, the p38 Mitogen Acitvated Protein kinase homolog, an evolutionary-conserved, central regulator of nematode immunity. The inventors also used qRT-PCR to measure the activation of several immune response genes that are known to be activated independently of PMK-1. […]

C49G7.5 = experiment: qRT-PCR of immune response gene expression; format: in vivo, Caenorhabditis elegans; details: 20 μg/mL versus DMSO
Excerpt: as §1, with “compounds. For qRT-PCR experiments, RNA was extracted from synchronized young adult nematodes exposed to a candidate compound or DMSO (as a control) using TRI Reagent and reverse transcribed using the Retroscript kit (Ambion). This cDNA was then subjected to qRT-PCR analysis using SYBR green detection on a CFX1000 machine (Bio-Rad, http://www.bio-rad.com). Primers for qRT-PCR were obtained from published sequences (see Irazoqui et al., Proc. Natl. Acad. Sci., 2008, 105:17469-74 and Troemel et al., PLoS Genet. 2006, 2:e183).” for “compounds.”
(§3) By using the assay described above, the inventors identified five compounds (i.e., Compounds 11, 18, 20, 25, and 26) that robustly and reproducibly activated the immune GFP reporters (see FIG. 5 and Table 3) or activated selected immune response genes as determined by quantitative RT-PCR analysis (see Table 4). For the latter experiments, RNA was isolated from wild-type C. elegans N2 or pmk-1 mutant animals exposed to the candidate immunomodulatory compounds at 20 μg/mL and from animals exposed to DMSO. The inventors tested several immune response genes in compound-exposed animals that are known to be regulated by PMK-1, the p38 Mitogen Acitvated Protein kinase homolog, an evolutionary-conserved, central regulator of nematode immunity. The inventors also used qRT-PCR to measure the activation of several immune response genes that are known to be activated independently of PMK-1. […] Thus, without wishing to be bound by theory, it is believed that a subset of the compounds identified in the screen for novel anti-infective compounds directly stimulate the immune response of the nematode and that these compounds act both by directly stimulating the PMK-1 pathway and by unidentified parallel immune response pathways.

F56D6.2 = experiment: qRT-PCR of immune response gene expression; format: in vivo, Caenorhabditis elegans; details: 20 μg/mL versus DMSO
Excerpt: as §1, with “compounds. For qRT-PCR experiments, RNA was extracted from synchronized young adult nematodes exposed to a candidate compound or DMSO (as a control) using TRI Reagent and reverse transcribed using the Retroscript kit (Ambion). This cDNA was then subjected to qRT-PCR analysis using SYBR green detection on a CFX1000 machine (Bio-Rad, http://www.bio-rad.com). Primers for qRT-PCR were obtained from published sequences (see Irazoqui et al., Proc. Natl. Acad. Sci., 2008, 105:17469-74 and Troemel et al., PLoS Genet. 2006, 2:e183).” for “compounds.”
as §3

F35E12.5 = experiment: qRT-PCR of immune response gene expression; format: in vivo, Caenorhabditis elegans; details: 20 μg/mL versus DMSO
Excerpt: as §1, with “compounds. For qRT-PCR experiments, RNA was extracted from synchronized young adult nematodes exposed to a candidate compound or DMSO (as a control) using TRI Reagent and reverse transcribed using the Retroscript kit (Ambion). This cDNA was then subjected to qRT-PCR analysis using SYBR green detection on a CFX1000 machine (Bio-Rad, http://www.bio-rad.com). Primers for qRT-PCR were obtained from published sequences (see Irazoqui et al., Proc. Natl. Acad. Sci., 2008, 105:17469-74 and Troemel et al., PLoS Genet. 2006, 2:e183).” for “compounds.”
as §3

C17H12.8 = experiment: qRT-PCR of immune response gene expression; format: in vivo, Caenorhabditis elegans; details: 20 μg/mL versus DMSO
Excerpt: as §1, with “compounds. For qRT-PCR experiments, RNA was extracted from synchronized young adult nematodes exposed to a candidate compound or DMSO (as a control) using TRI Reagent and reverse transcribed using the Retroscript kit (Ambion). This cDNA was then subjected to qRT-PCR analysis using SYBR green detection on a CFX1000 machine (Bio-Rad, http://www.bio-rad.com). Primers for qRT-PCR were obtained from published sequences (see Irazoqui et al., Proc. Natl. Acad. Sci., 2008, 105:17469-74 and Troemel et al., PLoS Genet. 2006, 2:e183).” for “compounds.”
as §3

irg-1 = experiment: qRT-PCR of immune response gene expression; format: in vivo, Caenorhabditis elegans; details: 20 μg/mL versus DMSO
Excerpt: as §1, with “compounds. For qRT-PCR experiments, RNA was extracted from synchronized young adult nematodes exposed to a candidate compound or DMSO (as a control) using TRI Reagent and reverse transcribed using the Retroscript kit (Ambion). This cDNA was then subjected to qRT-PCR analysis using SYBR green detection on a CFX1000 machine (Bio-Rad, http://www.bio-rad.com). Primers for qRT-PCR were obtained from published sequences (see Irazoqui et al., Proc. Natl. Acad. Sci., 2008, 105:17469-74 and Troemel et al., PLoS Genet. 2006, 2:e183).” for “compounds.”
as §3

T24B8.5 = experiment: qRT-PCR of immune response gene expression; format: in vivo, Caenorhabditis elegans; details: 20 μg/mL versus DMSO
Excerpt: as §1, with “compounds. For qRT-PCR experiments, RNA was extracted from synchronized young adult nematodes exposed to a candidate compound or DMSO (as a control) using TRI Reagent and reverse transcribed using the Retroscript kit (Ambion). This cDNA was then subjected to qRT-PCR analysis using SYBR green detection on a CFX1000 machine (Bio-Rad, http://www.bio-rad.com). Primers for qRT-PCR were obtained from published sequences (see Irazoqui et al., Proc. Natl. Acad. Sci., 2008, 105:17469-74 and Troemel et al., PLoS Genet. 2006, 2:e183).” for “compounds.”
as §3

F53E10.4 = experiment: qRT-PCR of immune response gene expression; format: in vivo, Caenorhabditis elegans; details: 20 μg/mL versus DMSO
Excerpt: as §1, with “compounds. For qRT-PCR experiments, RNA was extracted from synchronized young adult nematodes exposed to a candidate compound or DMSO (as a control) using TRI Reagent and reverse transcribed using the Retroscript kit (Ambion). This cDNA was then subjected to qRT-PCR analysis using SYBR green detection on a CFX1000 machine (Bio-Rad, http://www.bio-rad.com). Primers for qRT-PCR were obtained from published sequences (see Irazoqui et al., Proc. Natl. Acad. Sci., 2008, 105:17469-74 and Troemel et al., PLoS Genet. 2006, 2:e183).” for “compounds.”
as §3

clec-60::GFP = experiment: Immune GFP reporter induction, transgene agIs26; format: in vivo, Caenorhabditis elegans; details: compound-exposed versus DMSO-exposed animals, visual
Excerpt: as §1, §2

With `NNc1ccc2c(Cl)cc(Cl)c(O)c2n1` [Compound 11] the “mortality of PA14-infected worms” value ([1]; 3.125 μg/mL, glp-4 and glp-4;sek-1 worms, 48 hours) was at most 30%, the “effect of increasing the dosage on efficacy” value ([1]; 6.25 and 20 μg/mL versus 3.125 μg/mL) was “did not increase its efficacy” and the “effect on PA14 (growth)” value (PA14) was “unaffected”. For the same molecule, the “immune reporter induction F35E12.5::GFP” value (F35E12.5::GFP) was “+”, the “immune reporter induction T24B8.5::GFP” value (T24B8.5::GFP) was “+” and the “PMK-1 dependence of immune response gene activation” value (immune response genes) was “preferentially activated PMK-1-dependent immune response genes”. For the same molecule, the “C49G7.5 expression, average fold-change” value (C49G7.5; genotype N2) was 0.9 fold-change, the “C49G7.5 expression, average fold-change” value (C49G7.5; genotype pmk-1(km25)) was 2.5 fold-change and the “F56D6.2 expression, average fold-change” value (F56D6.2; genotype N2) was 15.1 fold-change. The “F56D6.2 expression, average fold-change” value (F56D6.2; genotype pmk-1(km25)) was 1.4 fold-change, the “F35E12.5 expression, average fold-change” value (F35E12.5; genotype N2) was 20.23 fold-change and the “F35E12.5 expression, average fold-change” value (F35E12.5; genotype pmk-1(km25)) was 6.7 fold-change. For the same molecule, the “C17H12.8 expression, average fold-change” value (C17H12.8; genotype N2) was 18.0 fold-change, the “C17H12.8 expression, average fold-change” value (C17H12.8; genotype pmk-1(km25)) was 1.1 fold-change and the “irg-1 expression, average fold-change” value (irg-1; genotype N2) was 1.7 fold-change. The “irg-1 expression, average fold-change” value (irg-1; genotype pmk-1(km25)) was 4.7 fold-change, the “T24B8.5 expression, average fold-change” value (T24B8.5; genotype N2) was 57.0 fold-change and the “T24B8.5 expression, average fold-change” value (T24B8.5; genotype pmk-1(km25)) was 3.2 fold-change. The “F53E10.4 expression, average fold-change” value (F53E10.4; genotype N2) was 1.0 fold-change, the “F53E10.4 expression, average fold-change” value (F53E10.4; genotype pmk-1(km25)) was 1.7 fold-change and the “immune reporter induction clec-60::GFP” value (clec-60::GFP) was “+”.
